In US9662323B2, “Compounds having muscarinic receptor antagonist and beta2 adrenergic receptor agonist activity” (CHIESI FARMACEUTICI S.p.A., priority 2015, dated 2017):

Experiments:
Human M3 receptor = target: T1, Human M3 receptor (Homo sapiens, UniProt P20309); test: M3 Receptor Radioligand Binding Assay; settings: human M3 receptor membranes, [3H]-N-methyl scopolamine; read-out: M3 binding affinity (Ki class)
T1 construct: purchased Perkin Elmer
Outline: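 Radioligand binding with 0.5% (v/v) final DMSO, incubated 2 h at room temperature with shaking. Membranes were collected on GF/C filters pre-treated with 0.5% polyethyleneimine, washed four times with assay buffer, and counted by scintillation.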

Human β2 adrenoceptor = target: T2, Human β2 adrenoceptor (Homo sapiens, UniProt P07550); test: β2 Adrenoceptor Radioligand Binding Assay; settings: human β2 adrenoceptor membranes, 125-I Cyanopindolol; read-out: B2 binding affinity (Ki class)
T2 construct: purchased Perkin Elmer
T2 sequence (P07550 whole entry): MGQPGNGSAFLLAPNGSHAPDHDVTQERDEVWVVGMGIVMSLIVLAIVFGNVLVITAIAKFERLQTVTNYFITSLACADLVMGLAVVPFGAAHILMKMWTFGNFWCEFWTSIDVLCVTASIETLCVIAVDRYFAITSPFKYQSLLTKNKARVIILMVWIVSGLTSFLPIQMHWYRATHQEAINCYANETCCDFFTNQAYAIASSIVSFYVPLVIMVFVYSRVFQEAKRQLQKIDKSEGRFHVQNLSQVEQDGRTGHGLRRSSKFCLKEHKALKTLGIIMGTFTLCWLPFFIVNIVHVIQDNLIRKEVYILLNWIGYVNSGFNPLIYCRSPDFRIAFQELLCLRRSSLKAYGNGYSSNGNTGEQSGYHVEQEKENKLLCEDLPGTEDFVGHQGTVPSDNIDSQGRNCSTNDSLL
Outline: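 Membranes were incubated 1 h at room temperature in 25 mM HEPES, 0.5% BSA, 1 mM EDTA, 0.02% ascorbic acid, pH 7.4, with 0.5% DMSO final. Bound radioligand was collected by GF/C filtration and counted by scintillation. IC50 values from competition curves were converted to Ki by Cheng–Prusoff.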

T1 sequence (P20309 whole entry): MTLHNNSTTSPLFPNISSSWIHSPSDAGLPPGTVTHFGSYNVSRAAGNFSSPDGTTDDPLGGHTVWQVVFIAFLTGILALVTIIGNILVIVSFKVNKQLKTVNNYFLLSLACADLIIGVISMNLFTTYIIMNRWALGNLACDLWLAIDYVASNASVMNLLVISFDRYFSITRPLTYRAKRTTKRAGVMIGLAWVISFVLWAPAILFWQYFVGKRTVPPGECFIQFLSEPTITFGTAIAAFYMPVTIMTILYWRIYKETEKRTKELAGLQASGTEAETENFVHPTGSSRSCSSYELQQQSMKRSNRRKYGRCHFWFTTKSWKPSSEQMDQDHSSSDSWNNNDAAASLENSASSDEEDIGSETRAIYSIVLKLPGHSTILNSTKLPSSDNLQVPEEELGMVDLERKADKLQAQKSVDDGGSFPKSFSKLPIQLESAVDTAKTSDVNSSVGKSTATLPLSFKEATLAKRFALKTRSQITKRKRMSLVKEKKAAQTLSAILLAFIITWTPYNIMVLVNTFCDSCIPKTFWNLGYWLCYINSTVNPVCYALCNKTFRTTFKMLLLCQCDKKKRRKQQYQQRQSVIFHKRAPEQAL

For `O=C(CCc1ccc(OCCCCNC[C@H](O)c2ccc(O)c3[nH]c(=O)ccc23)cc1)N1CCC(C(=O)O[C@H]2CN3CCC2CC3)(c2ccccc2)CC1` [Compound 32, (R)-Quinuclidin-3-yl 1-(3-(4-(4-(((R)-2-hydroxy-2-(8-hydroxy-2-oxo-1,2-dihydroquinolin-5-yl)ethyl)amino)butoxy)phenyl)propanoyl)-4-phenylpiperidine-4-carboxylate], the Ki (Human M3 receptor) was < 1 nM and the Ki (Human β2 adrenoceptor) was < 1 nM.
In the case of `Cc1ccc(CN(CCCNC[C@H](O)c2ccc(O)c3[nH]c(=O)ccc23)C(=O)Cc2ccc(CC(=O)N3CCC(C(=O)O[C@H]4CN5CCC4CC5)(c4ccccc4)CC3)cc2)cc1` [Compound 33, (R)-Quinuclidin-3-yl 1-(2-(4-(2-((3-(((R)-2-hydroxy-2-(8-hydroxy-2-oxo-1,2-dihydroquinolin-5-yl)ethyl)amino)propyl)(4-methylbenzyl)amino)-2-oxoethyl)phenyl)acetyl)-4-phenylpiperidine-4-carboxylate], the Ki (Human M3 receptor) is reported as < 1 nM and the Ki (Human β2 adrenoceptor) is reported as 1 to 10 nM.
With `Cc1ccccc1CN(CCCNC[C@H](O)c1ccc(O)c2[nH]c(=O)ccc12)C(=O)Cc1ccc(CC(=O)N2CCC(C(=O)O[C@H]3CN4CCC3CC4)(c3ccccc3)CC2)cc1` [Compound 34, (R)-Quinuclidin-3-yl 1-(2-(4-(2-((3-(((R)-2-hydroxy-2-(8-hydroxy-2-oxo-1,2-dihydroquinolin-5-yl)ethyl)amino)propyl)(2-methylbenzyl)amino)-2-oxoethyl)phenyl)acetyl)-4-phenylpiperidine-4-carboxylate] the Ki (Human M3 receptor) was < 1 nM and the Ki (Human β2 adrenoceptor) was < 1 nM.
With `Cc1cccc(CN(CCCNC[C@H](O)c2ccc(O)c3[nH]c(=O)ccc23)C(=O)Cc2ccc(CC(=O)N3CCC(C(=O)O[C@H]4CN5CCC4CC5)(c4ccccc4)CC3)cc2)c1` [Compound 35, (R)-Quinuclidin-3-yl 1-(2-(4-(2-((3-(((R)-2-hydroxy-2-(8-hydroxy-2-oxo-1,2-dihydroquinolin-5-yl)ethyl)amino)propyl)(3-methylbenzyl)amino)-2-oxoethyl)phenyl)acetyl)-4-phenylpiperidine-4-carboxylate] the Ki (Human M3 receptor) was < 1 nM and the Ki (Human β2 adrenoceptor) was < 1 nM.
With `O=C(Cc1ccc(CC(=O)N(CCCNC[C@H](O)c2ccc(O)c3[nH]c(=O)ccc23)Cc2ccccc2)cc1)N1CCC(C(=O)O[C@H]2CN3CCC2CC3)(c2ccccc2)CC1` [Compound 36, (R)-Quinuclidin-3-yl 1-(2-(4-(2-(benzyl(3-(((R)-2-hydroxy-2-(8-hydroxy-2-oxo-1,2-dihydroquinolin-5-yl)ethyl)amino)propyl)amino)-2-oxoethyl)phenyl)acetyl)-4-phenylpiperidine-4-carboxylate] the Ki (Human M3 receptor) was < 1 nM and the Ki (Human β2 adrenoceptor) was < 1 nM.
For `O=C(Cc1ccc(CC(=O)N(CCCNC[C@H](O)c2ccc(O)c3[nH]c(=O)ccc23)Cc2cccc(C(F)(F)F)c2)cc1)N1CCC(C(=O)O[C@H]2CN3CCC2CC3)(c2ccccc2)CC1` [Compound 37, (R)-Quinuclidin-3-yl 1-(2-(4-(2-((3-(((R)-2-hydroxy-2-(8-hydroxy-2-oxo-1,2-dihydroquinolin-5-yl)ethyl)amino)propyl)(3-(trifluoromethyl)benzyl)amino)-2-oxoethyl)phenyl)acetyl)-4-phenylpiperidine-4-carboxylate], the Ki (Human M3 receptor) was < 1 nM and the Ki (Human β2 adrenoceptor) was 1 to 10 nM.
With `COc1cccc(CN(CCCNC[C@H](O)c2ccc(O)c3[nH]c(=O)ccc23)C(=O)Cc2ccc(CC(=O)N3CCC(C(=O)O[C@H]4CN5CCC4CC5)(c4ccccc4)CC3)cc2)c1` [Compound 38, (R)-Quinuclidin-3-yl 1-(2-(4-(2-((3-(((R)-2-hydroxy-2-(8-hydroxy-2-oxo-1,2-dihydroquinolin-5-yl)ethyl)amino)propyl)(3-methoxybenzyl)amino)-2-oxoethyl)phenyl)acetyl)-4-phenylpiperidine-4-carboxylate] the Ki (Human M3 receptor) was < 1 nM and the Ki (Human β2 adrenoceptor) was < 1 nM.
